The results in this text go back to patent US5948782A, “Pharmaceutical composition containing quinoline and quinazoline derivatives and novel compounds therefor” (Takeda Chemical, priority 1992, dated 1999).

Series [1] concerns mice. Description: Oral toxicity in mice. Format: in vivo. The note with it: 300 mg/kg administered orally to mice. Here is the method:
The compounds of the present invention have low toxicity. For example, when 300 mg/kg of the compounds prepared in Examples 36, 45, 47, 54 and 64 were administered orally to mice, no mice died. Therefore, the compounds of the present invention are useful as an anti-inflammatory agent, particularly an agent for treating arthritis producing inflammatory symptoms, in humans and other mammals.

Series [2] relates to Rat Carrageenin Paw Edema. The series is described as follows: Rat Carrageenin Paw Edema Inhibitory Activity. The class given is in vivo. The note with it: Jcl:SD rats, 50 mg/kg orally, 3 hours after carrageenin. Here is the method:
Rat Carrageenin Paw Edema Inhibitory Activity
The volume of a planter part of a right hind leg of Jcl:SD rats (male, 6 weeks old) was measured, and then suspension of a test drug (50 mg/kg) in 5% acacia was administered orally. Then water was administered additionally so that the total amount of administered liquid became 5 ml/rat. After 1 hour, a suspension (0.05 ml) containing 1% carrageenin in physiological saline was injected intradermally into the plantar to induce swelling [Winter, C. A. et al; Proc. Soc. Exp. Biol. Med., 111, 544 (1962)]. The volume of the right hind leg was measured again 3 hours after the carrageenin injection, and swelling inhibitory rate was calculated from the difference in the volumes before and after the injection.
For orientation: The carrageenan paw model is a standard test of acute inflammation.

Series [3] concerns Antigen-responsive T cell. The series is described as follows: Antigen-Responsive T Cell Growth Inhibitory Activity (PPD-stimulated 3H-Tdr incorporation). Format: cell-based, Lewis rats. The note with it: PPD 2 μg/ml, Lewis rat T cells, read-out: Antigen-responsive T cell growth inhibitory rate (%). The method, then: Antigen-Responsive T Cell Growth Inhibitory Activity
According to the method of Test Example 1, adjuvant arthritis was induced in Lewis rats (male, 7 weeks old). After 14 days, lymphonodi inguinales were excised. Then, a single-cell suspension was prepared by using RPMI-1640 medium containing 5% fetal bovine serum and then incubated at 37° C. for 1 hour in a nylon wool column. The cells were eluted from the column with the same medium. The non-adsorptive cell-fraction was used as T cells.
On the other hand, spleen cells were taken out from unsensitized Lewis rats (male, 8 to 9 weeks old) and irradiated with soft X-rays (20,000 R). To the spleen cells (1×10^5 cells/well) were added the above T cells (5×10^5 cells/well), PPD (Purified Protein Derivatives; final concentration: 2 μg/ml) and 2% Lewis rat serum (treated at 56° C. for 30 minutes). The mixture was incubated at 37° C. for 72 hours in a 5% carbonic acid incubator. Further, ^3 H-Tdr (0.5 μCi/well) was added followed by incubation for 24 hours. The cells were recovered, and the radioactivity of ^3 H-Tdr incorporated into the cells was determined. The test drug was added to the cell suspension just before the addition of PPD, and effects on incorporation of ^3 H-Tdr into the cells were observed.

Series [4] deals with IL-1β. The series is described as follows: Anti-IL-1 activity (extracellular substrates of rat cartilage cells). The class given is cell-based. The note with it: 72 h, IL-1β 0.2 ng/ml, 3 days, read-out: IL-1 inhibitory activity (%). The method, then: Rat cartilage cells were prepared according to the known method [Fujio Suzuki et al., Sin Seikagaku Jikken Kohza, 18, p.871-875 (1990)] and cultivated in Dulbecco's Medium containing 10% fetal bovine serum. After 8 days, various concentrations of a test drug and IL-1β (0.2 ng/ml) were added, and the cells were cultivated for additional 3 days. The amount of extracellular substrates thus produced was determined.
Although IL-1β inhibits the synthesis of extracellular substrates of cartilage cells, addition of the drug inhibits the IL-1 activity and the amount of extracellular substrates synthesized was recovered.

The test system of series [5] is mouse phenylquinone writhing. The series is described as follows: Analgesic Activity in Mice (phenylquinone writhing model). The class given is in vivo. The note with it: Slc:ICR mice, 50 mg/kg orally, 20 minutes. The method, then:
Analgesic Activity in Mice
A drug (50 mg/kg) suspended in 5% acacia was administered orally to Slc:ICR mice (male, 4 weeks old). After 30 minutes, a 0.02% phenylquinone solution (0.1 ml/[…]) in 5% ethanol was administered intraperitoneally. Writhing and stretching reactions for 20 minutes after the injection were calculated for each mouse to evaluate analgesic activity of the test drug [Siegmund, E. et al.; Proc. Soc. Exp. Biol. Med., 95, 729 (1957)].
(In general: In writhing tests, fewer writhes than in controls are read as antinociception.)

Each structure is given as a SMILES string.

For the compound `CCOC(=O)c1c(CSc2nc3ccc(F)cc3[nH]2)nc2cc(OC)c(OC)cc2c1-c1ccc(OC)c(OC)c1` [Example 54, ethyl 6,7-dimethoxy-4-(3,4-dimethoxyphenyl)-2-[(5-fluorobenzimidazol-2-yl)thiomethyl]quinoline-3-carboxylate], in series [1], the mortality entry was “no mice died”. The “Swelling inhibitory rate (%)” value in series [2] came to 21%.
For the compound `CCOC(=O)c1c(CSc2nc3ccccc3s2)nc2cc(OC)c(OC)cc2c1-c1ccc(OC)c(OC)c1` [Example 60, ethyl 6,7-dimethoxy-4-(3,4-dimethoxyphenyl)-2-[(benzothiazol-2-yl)thiomethyl]quinoline-3-carboxylate], in series [3], the inhibition at 1 µM came out at 59% and the inhibition at 10 µM worked out at 91%. Further, in series [2], the “Swelling inhibitory rate (%)” value came out at 31%.
For `CCOC(=O)c1c(CSc2nc3ccccc3c(=O)[nH]2)nc2cc(OC)c(OC)cc2c1-c1ccc(OC)c(OC)c1` [Example 64, ethyl 6,7-dimethoxy-4-(3,4-dimethoxyphenyl)-2-[(3,4-dihydro-4-oxoquinazolin-2-yl)thiomethyl]quinoline-3-carboxylate], the results for the inhibition at 1 µM in series [3] and in series [4] (1 μM) were 53% and 23%, respectively. Further, the inhibition at 10 µM was determined as 78% in series [3] and 50% in series [4] (10 μM). Moreover, the mortality entry in series [1] was “no mice died”. Besides, in series [2], the “Swelling inhibitory rate (%)” value was 36%. Further, the “Inhibitory rate (%)” value in series [5] is recorded as 27%.
